System: HBeAg (surrogate marker for cccDNA) in HepDES19 cells
Experiment: Engineered HepDES19 primary screen assay (HBeAg ELISA)
Format: cell-based, HBV
Details: Hepatitis B virus, HepDES19, 120 h, read-out: IC50 (HBeAg level, HepDES19 primary screen assay), HepDES19 cells, 5 days compound incubation, HBeAg ELISA
Description: The assay was employed to screen for novel cccDNA inhibitors. HepDES19 is a cccDNA-producing cell line. In this cell line, HBeAg in the cell culture supernatant as surrogate marker, as HBeAg production depends on cccDNA level and activity. HepDES19 is an engineered cell line which contains a 1.1 unit length HBV genome, and pgRNA transcription from the transgene is controlled by Tetracycline (Tet). In the absence of Tet, pgRNA transcription will be induced, but HBV e antigen (HBeAg) could not be produced from this pgRNA due to very short leader sequence before the HBeAg start codon and the start codon is disrupted. Only after cccDNA is formed, the missing leader sequence and start codon mutation would be restored from the 3′-terminal redundancy of pgRNA, and then HBeAg could be synthesized. Therefore, HBeAg could be used as a surrogate marker for cccDNA (Zhou, T. et al., Antiviral Res. (2006), 72(2), 116-124; Guo, H. et al., J. Virol. (2007), 81(22), 12472-12484).
HepDES19 cells were seeded at 2×10^6 cells per T150 flask and cultured with the culture medium (Dulbecco's Modified Eagle Medium: Nutrient Mixture F-12 [DMEM-F12, Gibco Cat. 11320-82], 10% Fetal Bovine Serum [FBS, Clontech Cat. 631101], 0.1 mM Non-Essential Amino Acids Solution [NEAA, Gibco Cat. 11140-050], 50 μg/mL Penicillin-Streptomycin [PS, Invitrogen Cat. 15140-163], 500 μg/mL Geneticin [G418, Invitrogen Cat. 10131-027]) containing 3 μg/mL Tet (Sigma, Cat. 87128) for 5 days. Cells were then seeded at 4×10^6 cells per T150 in the same culture medium as described above in the absence of Tet for 8 days. Cells were then harvested and frozen at density of 2×10^6 cells per mL. For compound testing, the frozen cells were thawed and seeded into 96-well plates at a density of 6×10^4 cells per well. At 24 hours after seeding, half log serial dilutions of compounds made with Dimethyl sulfoxide (DMSO, Sigma, Cat. D2650) were further diluted with the same culture medium as described above before they were added to the cells to reach desired final compound concentrations and 1% DMSO concentration. Plates were then incubated at 37° C. for another 5 days before measurement of HBeAg level and cell viability. […] HBeAg level were measured with enzyme-linked immunosorbent assay (ELISA) kit (Shanghai Kehua Diagnostic Medical Products Co., Ltd). Cell viability was assessed using Cell Counting Kit-8 (DonJindo, Cat. CK04-20). IC50 values were derived from the dose-response curve using 4 parameter logistic curve fit method.
The compounds of the present invention were tested for their capacity to inhibit extracellular HBeAg level as described herein.

CCOc1ccc(-c2cc(=O)c3c(O)ccc(Cl)c3o2)c(O[C@H]2C[C@@H](C(=O)O)C2)c1 [Example B039-A, Cis-3-[2-(8-chloro-5-hydroxy-4-oxo-chromen-2-yl)-5-ethoxy-phenoxy]cyclobutanecarboxylic acid]
IC50: 6.76 µM

O=c1cc(-c2ccc(-c3nccs3)cc2OCCO[C@H]2C[C@@H](C(=O)O)C2)oc2c(Cl)cccc12 [Example C066-A, Cis-3-[2-[2-(8-chloro-4-oxo-chromen-2-yl)-5-thiazol-2-yl-phenoxy]ethoxy]cyclobutanecarboxylic acid]
IC50: 1.02 µM

O=C(O)c1cccc(COc2cc(Br)ccc2-c2cc(=O)c3cccc(Cl)c3o2)c1 [Example A072, 3-[[5-bromo-2-(8-chloro-4-oxo-chromen-2-yl)phenoxy]methyl]benzoic acid]
IC50: 0.366 µM

O=c1cc(-c2ccc(C3CC3)cc2OCCO[C@H]2C[C@@H](C(=O)O)C2)oc2c(Cl)cccc12 [Example C069-A, Cis-3-[2-[2-(8-chloro-4-oxo-chromen-2-yl)-5-cyclopropyl-phenoxy]ethoxy]cyclobutanecarboxylic acid]
IC50: 5.09 µM

CSc1ccc(-c2cc(=O)c3cccc(Cl)c3o2)c(OCCO[C@H]2C[C@@H](C(=O)O)C2)c1 [Example C064-A, Cis-3-[2-[2-(8-chloro-4-oxo-chromen-2-yl)-5-methylsulfanyl-phenoxy]ethoxy]cyclobutanecarboxylic acid]
IC50: 1.94 µM

CCNS(=O)(=O)N[C@@H](COc1cc(C(F)(F)F)ccc1-c1cc(=O)c2cccc(Cl)c2o1)C(=O)OC [Example A098, methyl (2S)-3-[2-(8-chloro-4-oxo-chromen-2-yl)-5-(trifluoromethyl)phenoxy]-2-(ethylsulfamoylamino)propanoate]
IC50: 0.036 µM

O=c1cc(-c2cc(OC(F)(F)F)c(O)cc2OCCO[C@H]2C[C@@H](C(=O)O)C2)oc2c(Cl)cccc12 [Example C090, Cis-3-[2-[2-(8-chloro-4-oxo-chromen-2-yl)-5-hydroxy-4-(trifluoromethoxy)phenoxy]ethoxy]cyclobutanecarboxylic acid]
IC50: 6.57 µM

COc1cc(OCCO[C@H]2C[C@H](C(=O)O)C2)c(-c2cc(=O)c3cccc(Cl)c3o2)cc1C [Example C041-B, Trans-3-[2-[2-(8-chloro-4-oxo-chromen-2-yl)-5-methoxy-4-methyl-phenoxy]ethoxy]cyclobutanecarboxylic acid]
IC50: 9.64 µM

Cc1cc(-c2cc(=O)c3cccc(Cl)c3o2)c(OCC2(CC(=O)O)CC2)cc1Br [Example A068, 2-[1-[[5-bromo-2-(8-chloro-4-oxo-chromen-2-yl)-4-methyl-phenoxy]methyl]cyclopropyl]acetic acid]
IC50: 5.7 µM

O=C(O)CCOc1cc(Br)c(OC(F)(F)F)cc1-c1cc(=O)c2cccc(Cl)c2o1 [Example A014, 3-[5-bromo-2-(8-chloro-4-oxo-chromen-2-yl)-4-(trifluoromethoxy)phenoxy]propanoic acid]
IC50: 3.22 µM

O=C(COCCOc1cc(Br)ccc1-c1cc(=O)c2cccc(Cl)c2o1)N1CCC(O)C1 (centres unmarked) [Example C126, 2-[4-bromo-2-[2-[2-(3-hydroxypyrrolidin-1-yl)-2-oxo-ethoxy]ethoxy]phenyl]-8-chloro-chromen-4-one]
IC50: 4.4 µM

O=c1cc(-c2ccccc2O)oc2cc(O)ccc12 [Example F-1, 7-hydroxy-2-(2-hydroxyphenyl)chromen-4-one, reference compound]
IC50: > 50 µM

O=c1cc(-c2ccc(Br)cc2OCCO[C@H]2C[C@@H](C(=O)O)C2)oc2c(Cl)c(F)ccc12 [Example C030-A, Cis-3-[2-[5-bromo-2-(8-chloro-7-fluoro-4-oxo-chromen-2-yl)phenoxy]ethoxy]cyclobutanecarboxylic acid]
IC50: 1.37 µM

COc1cc(O[C@H]2C[C@H](C(=O)O)C2)c(-c2cc(=O)c3cccc(Cl)c3o2)cc1Br [Example B014, Trans-3-[4-bromo-2-(8-chloro-4-oxo-chromen-2-yl)-5-methoxy-phenoxy]cyclobutanecarboxylic acid]
IC50: 15.5 µM

Source: patent publication US11708344B2, “Flavone derivatives for the treatment and prophylaxis of hepatitis B virus disease” (Hoffmann-La Roche Inc., priority 2018, dated 2023)
